A word on the GI50: it is the concentration that inhibits growth by half. By IC50 is commonly meant the concentration that gives 50% inhibition.

Activity calls are given as the source filed them. The calls are words filed in the database; no cut-off is given here.

A short description of data set [1]: Acute toxicity in Swiss albino mouse assessed as effect on motor alterations up to 2000 mg/kg, po administered for 14 days. Type of data set: organism-based. Conditions: in vivo, 336 h, time 14 day.
Data set [2] is described as follows: Cytotoxicity against human THLE-2 cells assessed as cell growth inhibition at 10 uM relative to control. The data set is classed as toxicity, cell-based. Particulars: read-out: GI.
Data set [3] has as its system Mus musculus. Put plainly: Antidiabetic activity against high fat diet-STZ-induced diabetic Swiss albino mouse model assessed as serum insulin level at 0.2 mmol/Kg/day, po administered for 14 days by ELISA method (reference value: 16.37 +/- 0.62 uU/ml). The data set is classed as functional. Particulars: time 14 day. In general terms: ELISA stands for enzyme-linked immunosorbent assay.

Data set [4] concerns Mus musculus. Put plainly: Antidiabetic activity against high fat diet-STZ-induced diabetic Swiss albino mouse model assessed as insulin resistance by measuring serum TNFalpha level at 0.2 mmol/Kg/day, po administered for 14 days by ELISA method (reference value: 376.50+/-14.50 ng/ml). The data set is classed as functional. Conditions: time 14 day.
A short description of data set [5]: Cytotoxicity against human MRC5 cells assessed as cell growth inhibition. Type of data set: toxicity, cell-based.
The test system of data set [6] is Mus musculus. Put plainly: Antioxidant activity against high fat diet-STZ-induced diabetic Swiss albino mouse model assessed as serum SOD level at 0.2 mmol/Kg/day, po administered for 14 days (reference value: 273.01+/- 6.23 U/ml). Particulars: time 14 day. The data set is classed as functional.
A short description of data set [7]: Toxicity in high fat diet-STZ-induced diabetic Swiss albino mouse model assessed as changes in body weight at 0.2 mmol/Kg/day, po administered for 14 days (reference value: 26.6 to 27.8 g). The data set is classed as organism-based. Conditions: in vivo, 336 h, time 14 day.
The test system of data set [8] is voltage dependent L/T-type calcium channel. Put plainly: Inhibition of voltage dependent L/T-type calcium channel in human SH-SY5Y cells. Particulars: SH-SY5Y cells.
The target of data set [9] is Dipeptidyl peptidase 4 (Homo sapiens, UniProt P27487). Put plainly: Inhibition of DPP-4 (unknown origin) incubated for 30 mins in presence of substrate by fluorescence based analysis relative to sitagliptin.
Data set [10] has as its system Mus musculus. Put plainly: Antidiabetic activity against high fat diet-STZ-induced diabetic Swiss albino mouse model assessed as insulin resistance by measuring serum IL6 level at 0.2 mmol/Kg/day, po administered for 14 days by ELISA method (reference value: 39.30+/-4.14 pg/ml). Conditions: time 14 day. Type of data set: functional.
Data set [11] has as its system Mus musculus. Put plainly: Antidiabetic activity against high fat diet-STZ-induced diabetic Swiss albino mouse model assessed as induction of beta cell regeneration in pancreas at 0.2 mmol/kg/day, po administered for 14 days by haematoxylin and eosin staining based analysis. Conditions: Pancreatic beta cell, time 14.0 day. The data set is classed as functional, organism-based.

The nature of data set [12]: Acute toxicity in Swiss albino mouse assessed as effect on behavioural change up to 2000 mg/kg, po administered for 14 days. Particulars: in vivo, 336 h, time 14 day. The data set is classed as organism-based.
Data set [13] is described as follows: Cytotoxicity against human HCN-1A cells assessed as cell growth inhibition at 10 uM relative to control. Type of data set: toxicity, cell-based. Particulars: read-out: GI.
Data set [14] concerns the target Alpha amylase (Homo sapiens) (UniProt P0DUB6). Put plainly: Inhibition of alpha amylase (unknown origin) measured after 20 to 25 mins relative to quercetin. Particulars: time 20-25 min.
Data set [15] deals with INS1. Put plainly: Induction of apoptosis in rat INS1 cells assessed as necrotic cells at 1 uM incubated for 36 hrs by Annexin V-FITC/ propidium iodide staining based flow cytometry analysis (reference value: 1.15%). The data set is classed as functional. In general terms: Flow cytometry measures light scatter and fluorescence of single cells or particles in a stream.
Data set [16] in a line: Cytotoxicity against human MCF-10F cells assessed as cell growth inhibition. Type of data set: toxicity, cell-based.
The nature of data set [17]: Cytotoxicity against human MRC5 cells assessed as cell growth inhibition at 10 uM relative to control. Conditions: read-out: GI. Type of data set: toxicity, cell-based.
Data set [18] in a line: Cytotoxicity against human BJ cells assessed as cell growth inhibition. The data set is classed as toxicity, cell-based.
For data set [19], the system named is Mus musculus. Put plainly: Antidiabetic activity against high fat diet-STZ-induced diabetic Swiss albino mouse model assessed as reduction in blood glucose level at 0.2 mmol/Kg/day, po administered for 14 days relative to control. More on the design: scale not given: the % may be the effect or the level left. The data set is classed as functional. Particulars: time 14 day.

Data set [20] is described as follows: Cytotoxicity against human ECT1/E6E7 cells assessed as cell growth inhibition at 10 uM relative to control. Type of data set: toxicity, cell-based. Particulars: read-out: GI.
A short description of data set [21]: Cytotoxicity against human WPE1-NA22 cells assessed as cell growth inhibition. Type of data set: toxicity, cell-based.
Data set [22] has as its system Mus musculus. Put plainly: Antidiabetic activity against high fat diet-STZ-induced diabetic Swiss albino mouse model assessed as reduction in blood glucose level at 0.2 mmol/Kg/day, po administered for 14 days. The data set is classed as functional. Conditions: time 14 day.

Sequence of Alpha amylase (Homo sapiens) (P0DUB6 whole entry, looked up): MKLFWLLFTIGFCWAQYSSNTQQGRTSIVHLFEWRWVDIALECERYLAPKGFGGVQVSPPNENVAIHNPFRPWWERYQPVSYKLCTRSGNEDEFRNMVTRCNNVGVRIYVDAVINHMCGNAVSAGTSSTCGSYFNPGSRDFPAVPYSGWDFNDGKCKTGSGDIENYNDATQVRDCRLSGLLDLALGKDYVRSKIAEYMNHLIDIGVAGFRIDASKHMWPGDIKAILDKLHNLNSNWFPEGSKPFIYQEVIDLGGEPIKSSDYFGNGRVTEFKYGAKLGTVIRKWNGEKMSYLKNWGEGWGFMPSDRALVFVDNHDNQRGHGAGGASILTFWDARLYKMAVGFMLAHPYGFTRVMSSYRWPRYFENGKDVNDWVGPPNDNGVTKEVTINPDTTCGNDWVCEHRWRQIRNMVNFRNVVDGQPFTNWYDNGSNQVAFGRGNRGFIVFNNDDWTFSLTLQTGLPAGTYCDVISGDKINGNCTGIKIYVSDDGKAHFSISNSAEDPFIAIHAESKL
Sequence of Dipeptidyl peptidase 4 (P27487 whole entry, looked up): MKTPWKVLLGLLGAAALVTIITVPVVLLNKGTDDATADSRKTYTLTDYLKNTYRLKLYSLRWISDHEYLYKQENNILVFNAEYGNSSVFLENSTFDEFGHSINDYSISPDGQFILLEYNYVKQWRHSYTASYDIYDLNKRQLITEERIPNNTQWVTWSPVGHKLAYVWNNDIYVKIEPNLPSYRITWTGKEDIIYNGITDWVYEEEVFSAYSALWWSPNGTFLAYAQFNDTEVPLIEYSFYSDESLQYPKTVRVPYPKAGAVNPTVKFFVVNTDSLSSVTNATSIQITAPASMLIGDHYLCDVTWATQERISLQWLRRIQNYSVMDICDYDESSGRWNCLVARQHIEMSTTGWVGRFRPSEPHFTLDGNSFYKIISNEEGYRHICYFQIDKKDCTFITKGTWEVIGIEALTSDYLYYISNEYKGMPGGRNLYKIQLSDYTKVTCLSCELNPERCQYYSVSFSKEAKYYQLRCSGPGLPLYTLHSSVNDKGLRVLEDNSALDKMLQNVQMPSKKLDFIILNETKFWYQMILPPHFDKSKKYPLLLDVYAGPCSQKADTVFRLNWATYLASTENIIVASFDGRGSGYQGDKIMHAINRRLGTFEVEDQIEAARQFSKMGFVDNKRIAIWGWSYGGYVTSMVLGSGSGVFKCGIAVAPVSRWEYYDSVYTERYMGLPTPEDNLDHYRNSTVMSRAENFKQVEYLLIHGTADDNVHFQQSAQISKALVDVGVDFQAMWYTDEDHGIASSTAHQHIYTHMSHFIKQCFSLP

`CCOC(=O)C1=C(C)NC(C)=C(C(=O)OCC)C1c1cccc2c1OCO2`: the Activity result in data set [1] is “Non-Toxic”; in data set [3] it was 16.31 uU/ml; in [4], 415.5 ng/mL; in data set [6], 236.14 U/ml; in [7], 26.9 g; in data set [10], 96.07 pg/mL. Moreover, the Activity entry in data set [12] was “Non-Toxic”; in data set [15] it was 1.46%; in [19], 72.97%; in [22] it was 80.6 mg/dL. In addition, the inhibition at 10 µM in [2] came to 18.3%; in [13], 33.1%; in data set [17], 18.6%; in data set [20] it was 18.9%. In addition, the GI50 in [5] stood at 61.8 µM; in [16], 171 µM; in data set [18], 15.2 µM; in [21] it was 24.9 µM. The IC50 in data set [8] came to 16.5 µM. In addition, the inhibition is less than 1% in data set [9] and 47% in data set [14]. Further, the result in data set [11] was Active.

For the origin of these results see ChEMBL document CHEMBL5316297, “Mechanistic Insight of Synthesized 1,4-Dihydropyridines as an Antidiabetic Sword against Reactive Oxygen Species” (J Med Chem, 2023).
